Test results from patent publication US12686788B2, “Coating compositions having covalently bound ultraviolet absorbers” (BASF SE, priority 2017, dated 2026).
One block for each compound: values may come before it.

Experiments:
Type in all cases: physicochemical
[1] = Multilayered coated panels, accelerated weathering: 20 degree gloss retention; settings: after 3536 hours Xenon Arc accelerated weathering (SAE J2527); UV absorber 2.5 wt % in 2-part polyurethane clear top coat on white base coat
Description: (§1) Example 10. Stabilized 2-Part Solvent-borne Polyurethane Glossy Clear Top Coat. A glossy stabilized clear top coat was prepared of the formulation below. The UV absorbers were added to the formulation at 2.5 wt % relative to total resin solids.
(§2) Example 11. Stabilized 2-Part Solvent-borne Polyurethane Glossy Clear Top Coat. A glossy stabilized clear top coat was prepared of the formulation below. The UV absorber was added at 2.5 wt % relative to total resin solids, and the hindered amine light stabilizer (HALS) was added at 1.5 wt % relative to total resin solids. The HALS was a mixture of bis (1,2,2,6,6-pentamethyl-4-piperidyl) sebacate and methyl-1,2,2,6,6-pentamethyl-4-piperidyl sebacate (“HALS 1”); bis(1-octyloxy-2,2,6,6-tetramethylpiperidin-4-yl) sebacate (“HALS 2”); or 2,4-bis[(1-cyclohexyloxy-2,2,6,6-tetramethylpiperidin-4-yl)butylamino]-6-(2-hydroxyethylamino-s-triazine (“HALS 3”).
Example 12. Multilayered Coated Panel Preparation. Aluminum test panels from ACT Test Panels LLC were purchased having a white base coat (coil coat) and no clear top coat. The panels were cut to a size of about 3 inches by 6 inches. […] Initial CIE Lab color values, 20 degree gloss, and 60 degree gloss were measured. […]

[2] = UV absorber solubility in UV curable coating composition (Example 8); settings: approximate maximum concentration with no sign of crystallization; coating similar to Pourreau, RadTech Report 2004, Table 5
Description: Example 8. UV Absorber Solubility in UV Curable Coating Compositions. To measure this solubility, a number of structurally different UV absorbers were added to a typical UV curable coating composition similar to that as described by D. B. Pourreau “UV-Curable Acrylic Urethane Clearcoats for Automotive Applications,” RadTech Report, November/December, 2004, Table 5, p. 66. The test UV absorber was added to the UV curable coating composition at various concentrations. The resulting solution was placed into individual containers and sealed. Solubility was then evaluated based upon observed crystallization in the solvent. Observations started after several hours and then continued over a period of several weeks.
The solubility values given in Table 1, below, are approximate maximum concentrations where no sign of subsequent crystallization was evident. Solubilities are reported in weight percent of total UV absorber added to UV curable coating formulation. From the data in Table 1, it is clear that the inventive triazine UV absorbers are considerably more soluble in UV curable coating formulations than other triazine UV absorbers of the prior art. The use of many UV absorbers in coatings has been limited by solubility and compatibility of some UV absorber compounds. […]

[3] = Multilayered coated panels, accelerated weathering: color change (ΔE); settings: after 6000 hours Xenon Arc accelerated weathering (SAE J2527); UV absorber 2.5 wt % in 2-part polyurethane clear top coat on white base coat
Description: as §1, §2
Example 12. Multilayered Coated Panel Preparation. Aluminum test panels from ACT Test Panels LLC were purchased having a white base coat (coil coat) and no clear top coat. The panels were cut to a size of about 3 inches by 6 inches. The stabilized top coats of Examples 10 and 11 were applied to the painted test panels using draw down bars to obtain clear coat thicknesses of either 2 mils or 3 mils, wherein 1 mil is equal to 0.0254 mm or 25.4 microns. The panels were allowed to air dry for 2 days followed by oven curing at 60° C. for 60 minutes. Initial CIE Lab color values, 20 degree gloss, and 60 degree gloss were measured.
Example 14. Multilayered Coated Panels, Accelerated Weathering. […]
Initial color measurements were taken using the above parameters. The L, a, and b values were calculated using the CIE system from the reflectance values. ΔE was calculated from the L, a, and b values. Subsequent measurements were taken at specified intervals. ΔL, a, and b values were the difference between the initial values and the values at each interval. ΔE was calculated as follows: [(ΔL)^2+(Δa)^2+(Δb)^2][…]=ΔE. […]

[4] = Percent transmission of clear coats on fused quartz plates (UV-vis); settings: clear coat, 2.0 mils dry film on fused quartz; 2.5 weight percent UVA actives where present; with HALS 2
Description: Example 29. Percent Transmission Data of the Inventive Clear Coats—Clear coats were prepared of Instant Example 23 and were applied to fused quartz plates at a dry film thickness of 2.0 mils. The absorbance at various wavelengths was measured using a UV-vis spectrophotometer and the absorbance readings were converted to percent transmission (% T) at various wavelengths. In formulations where the UV absorber (UVA) was present, the concentration was 2.5 weight percent UVA actives relative to total resin solids

[5] = UV absorber solubility in UV curable coating composition (Example 9); settings: approximate maximum concentration with no sign of crystallization; coating similar to Pourreau, RadTech Report 2004, Table 6
Description: Example 9. UV Absorber Solubility in UV Curable Coating Compositions. To measure this solubility, a number of structurally different UV absorbers were added to a typical UV curable coating composition similar to that as described by D. B. Pourreau “UV-Curable Acrylic Urethane Clearcoats for Automotive Applications,” RadTech Report, November/December, 2004, Table 6, p. 68. The test UV absorber was added to the UV curable coating composition at various concentrations. The resulting solution was placed into individual containers and sealed. Solubility was then evaluated based upon observed crystallization in the solvent. Observations were initiated after several hours and continued over a period of several weeks.
The solubility values given in Table 2, below, are approximate maximum concentrations where no sign of subsequent crystallization is evident. Solubilities are reported in weight percent of total UV absorber added to UV curable coating formulation. From the data, it is clear that the instant triazine UV absorbers are considerably more soluble in UV curable coating formulations compared to other, triazine UV absorbers. The use of many UV absorbers in coatings has been limited in the past by the limited solubility and compatibility of some UV absorber compounds.

Solubility in UV Curable Coating [2]: ~0 wt %
Compound: CC(C)CCCC(C)OC(=O)C(C)Oc1ccc(-c2nc(-c3ccc(-c4ccccc4)cc3)nc(-c3ccc(-c4ccccc4)cc3)n2)c(O)c1 (centres unmarked) [Example 4, 2-Isooctyl 2-[4-[4,6-bis(4-phenylphenyl)-1,3,5-triazin-2-yl]-3-hydroxy-phenoxy]propanoate]
20 degree gloss retention [1]: 78.8% | Delta E [3]: 3.78

Compound: 2-[4,6-bis(2,4-dimethylphenyl)-1,3,5-triazin-2-yl]-5-[2-hydroxy-3-(2-methylbutoxy)propoxy]phenol and regioisomer [Example 3, reference compound]
% T at 325 nm [4]: 0.04% | % T at 350 nm [4]: 0.10% | % T at 375 nm [4]: 36.79%

Compound: CC(C)(C)CCCCCC(=O)OCC(COc1ccc(-c2nc(-c3ccc(-c4ccccc4)cc3)nc(-c3ccc(-c4ccccc4)cc3)n2)c(O)c1)OC(=O)NCCCCCNC(=O)N(CCCCCCN=C=O)C(=O)NCCCCCCN=C=O (centres unmarked) [Example 16, [3-[4-[4,6-bis(4-phenylphenyl)-1,3,5-triazin-2-yl]-3-hydroxy-phenoxy]-2-[5-[[6-isocyanatohexyl(6-isocyanatohexylcarbamoyl)carbamoyl]amino]pentyl-carbamoyloxy]propyl] neodecanoate]
% T at 325 nm [4]: 0.03% | % T at 350 nm [4]: 0.11% | % T at 375 nm [4]: 33.86%

Compound: CCCCCC(CC)OC(=O)N(CCCCCCN=C=O)C(=O)NCCCCCCNC(=O)OC(COC(=O)CCCCCC(C)(C)C)COc1ccc(-c2nc(-c3ccc(-c4ccccc4)cc3)nc(-c3ccc(-c4ccccc4)cc3)n2)c(O)c1 (centres unmarked) [Example 19, [3-[4-[4,6-bis(4-phenylphenyl)-1,3,5-triazin-2-yl]-3-hydroxy-phenoxy]-2-[6-[[1-ethylhexoxycarbonyl(6-isocyanatohexyl)carbamoyl]amino]hexylcarbamoyloxy]propyl] neodecanoate]
% T at 325 nm [4]: 0.02% | % T at 350 nm [4]: 0.10% | % T at 375 nm [4]: 27.18%

Compound: CCCCCCCCON1C(C)(C)CC(OC(=O)CCCCCCCCC(=O)OC2CC(C)(C)N(OCCCCCCCC)C(C)(C)C2)CC1(C)C [HALS 2, bis(1-octyloxy-2,2,6,6-tetramethylpiperidin-4-yl) sebacate, reference compound]
% T at 325 nm [4]: 84.39% | % T at 350 nm [4]: 92.31% | % T at 375 nm [4]: 93.38%

Solubility in UV Curable Coating [5]: ~2.4 wt %
Compound: CCCCC(CC)COc1ccc(-c2nc(-c3ccc(-c4ccccc4)cc3)nc(-c3ccc(-c4ccccc4)cc3)n2)c(O)c1 (centres unmarked) [Example 5, 2-[4,6-Bis(4-phenylphenyl)-1,3,5-triazin-2-yl]-5-(2-ethylhexoxy)phenol, reference compound]
Delta E [3]: 2.79

Solubility in UV Curable Coating [2]: ~6.4 wt % | Solubility in UV Curable Coating [5]: ~26 wt %
Compound: [3-[4-[4,6-bis(4-phenylphenyl)-1,3,5-triazin-2-yl]-3-hydroxy-phenoxy]-2-hydroxy-propyl] neo-decanoate (“UVA-3”) and [2-[4-[4,6-bis(4-phenylphenyl)-1,3,5-triazin-2-yl]-3-hydroxy-phenoxy]-3-hydroxy-propyl] neo-decanoate (“UVA-4”) [Example 2]
Delta E [3]: 1.89

Compound: CC(C)(C)CCCCCC(=O)OCC(COc1ccc(-c2nc(-c3ccc(-c4ccccc4)cc3)nc(-c3ccc(-c4ccccc4)cc3)n2)c(O)c1)OC(=O)NCCCCCCNC(=O)N(CCCCCCN=C=O)C(=O)NCCCCCCNC(=O)OC(COC(=O)CCCCCC(C)(C)C)COc1ccc(-c2nc(-c3ccc(-c4ccccc4)cc3)nc(-c3ccc(-c4ccccc4)cc3)n2)c(O)c1 (centres unmarked) [Example 17, [3-[4-[4,6-bis(4-phenylphenyl)-1,3,5-triazin-2-yl]-3-hydroxy-phenoxy]-2-[6-[[6-[[1-[[4-[4,6-bis(4-phenylphenyl)-1,3,5-triazin-2-yl]-3-hydroxy-phenoxy]methyl]-2-(neodecanoyl)oxy-ethoxy]carbonylamino]hexylcarbamoyl-(6-isocyanatohexyl)-carbamoyl]amino]hexylcarbamoyloxy]propyl] neodecanoate]
% T at 325 nm [4]: 0.02% | % T at 350 nm [4]: 0.09% | % T at 375 nm [4]: 25.29%

Compound: CC(C)(C)CCCCCC(=O)OCC(COc1ccc(-c2nc(-c3ccc(-c4ccccc4)cc3)nc(-c3ccc(-c4ccccc4)cc3)n2)c(O)c1)OC(=O)NCCCCCCn1c(=O)n(CCCCCCN=C=O)c(=O)n(CCCCCCN=C=O)c1=O (centres unmarked) [Example 18, [2-[6-[3,5-bis(6-isocyanatohexyl)-2,4,6-trioxo-1,3,5-triazinan-1-yl]hexylcarbamoyloxy]-3-[4-[4,6-bis(4-phenylphenyl)-1,3,5-triazin-2-yl]-3-hydroxy-phenoxy]propyl] neodecanoate]
% T at 325 nm [4]: 0.02% | % T at 350 nm [4]: 0.13% | % T at 375 nm [4]: 31.98%
